# Experimental data taken from US20240239781A1, “1H-PYRAZOLE DERIVATIVES AS SIGMA LIGANDS” (ACONDICIONAMIENTO TARRASENSE, priority 2021, published 2024).
# pKi: −log10 of the molar value.
# Columns and labels:
# human σ1 receptor = biological target: T1, human σ1 receptor (Homo sapiens, UniProt Q99720); test: Human σ1 receptor radioligand assay ([3H](+)-pentazocine, transfected HEK-293 membranes); settings: class scale, read-out: Binding σ-1 Ki
# T1 construct: expressed in transfected cells; host or cells: HEK-293
# Method in brief: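 Membranes (7 μg) from transfected HEK-293 cells were incubated with 5 nM [3H](+)-pentazocine in 50 mM Tris-HCl, pH 8, for 120 minutes at 37° C, with 10 μM haloperidol defining non-specific binding. Bound radioactivity was filtered and counted by scintillation. Results are % inhibition at 1 or 10 μM or Ki from five concentrations.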
# human σ2/TMEM97 receptor = biological target: T2, human σ2/TMEM97 receptor (Homo sapiens, UniProt Q5BJF2); test: Binding assay to human σ2/TMEM97 receptor ([3H]-DTG, transfected HEK-293 membranes); settings: class scale, read-out: Binding σ-2 Ki
# T2 construct: expressed in transfected cells; host or cells: HEK-293
# Method in brief: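 Membranes (15 μg) from transfected HEK-293 incubated 120 min at 25 °C with 10 nM [3H]-DTG in 50 mM Tris-HCl pH 8.0; nonspecific binding with 10 μM haloperidol. Filtration and scintillation counting; % inhibition at 1 or 10 μM, or Ki from five concentrations.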
# T2 sequence (Q5BJF2 whole entry): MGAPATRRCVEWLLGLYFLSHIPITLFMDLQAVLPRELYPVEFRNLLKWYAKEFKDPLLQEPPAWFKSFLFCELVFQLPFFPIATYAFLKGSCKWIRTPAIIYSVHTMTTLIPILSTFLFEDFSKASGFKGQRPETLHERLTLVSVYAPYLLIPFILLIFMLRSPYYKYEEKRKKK
# T1 sequence (Q99720 whole entry): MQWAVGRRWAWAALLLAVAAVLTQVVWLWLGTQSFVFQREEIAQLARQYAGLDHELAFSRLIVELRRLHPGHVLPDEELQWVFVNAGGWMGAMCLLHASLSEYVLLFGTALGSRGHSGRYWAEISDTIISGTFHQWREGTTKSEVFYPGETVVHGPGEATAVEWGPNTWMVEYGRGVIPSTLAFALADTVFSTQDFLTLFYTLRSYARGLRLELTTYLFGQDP
pKi (human σ1 receptor),pKi (human σ2/TMEM97 receptor),SMILES
6.30 to 7.00,6.30 to 7.00,"CCn1nc(-c2cc(C)on2)c(CN2CCCCC(NCCC(C)(C)C)C2)c1Cl (stereo not drawn) [Example 22, 1-((5-Chloro-1-ethyl-3-(5-methylisoxazol-3-yl)-1H-pyrazol-4-yl)methyl)-N-(3,3-dimethylbutyl)azepan-3-amine]"
6.30 to 7.00,> 7.00,"Cn1nc(-c2cccc(C(F)(F)F)n2)c(CC(=O)N2CCC3(CCN(CCC(C)(C)C)CC3)CC2)c1Cl [Example 213, 2-(5-Chloro-1-methyl-3-(6-(trifluoromethyl)pyridin-2-yl)-1H-pyrazol-4-yl)-1-(9-(3,3-dimethylbutyl)-3,9-diazaspiro[5.5]undecan-3-yl)ethan-1-one]"
6.30 to 7.00,6.00 to 6.30,"Cc1cc(-c2nn(C)c(Cl)c2CN2CCCCC(N(C)CCC(C)C)C2)no1 (stereo not drawn) [Example 80, 1-((5-Chloro-1-methyl-3-(5-methylisoxazol-3-yl)-1H-pyrazol-4-yl)methyl)-N-isopentyl-N-methylazepan-3-amine]"
6.00 to 6.30,> 7.00,"Cn1nc(-c2ccccn2)c(C(=O)N2CCC3(CCN(CCC(C)(C)C)CC3)CC2)c1Cl [Example 173, (5-Chloro-1-methyl-3-(pyridin-2-yl)-1H-pyrazol-4-yl)(9-(3,3-dimethylbutyl)-3,9-diazaspiro[5.5]undecan-3-yl)methanone]"
6.00 to 6.30,> 7.00,"Cc1cc(-c2nn(C(C)C)c(Cl)c2C(=O)N2CC3(CCN(CCC(C)(C)C)CC3)C2)no1 [Example 188, (5-Chloro-1-isopropyl-3-(5-methylisoxazol-3-yl)-1H-pyrazol-4-yl)(7-(3,3-dimethylbutyl)-2,7-diazaspiro[3.5]nonan-2-yl)methanone]"
< 6.00,> 7.00,"CCn1nc(-c2ccon2)c(CC(=O)N2CCCC3(CCN(CCC(C)(C)C)CC3)C2)c1Cl [Example 218, 2-(5-Chloro-1-ethyl-3-(isoxazol-3-yl)-1H-pyrazol-4-yl)-1-(9-(3,3-dimethylbutyl)-2,9-diazaspiro[5.5]undecan-2-yl)ethan-1-one]"
6.30 to 7.00,> 7.00,"Cc1cc(-c2nn(C)c(Cl)c2CN2CCCC(CNCCC(C)C)C2)no1 (stereo not drawn) [Example 58, N-((1-((5-Chloro-1-methyl-3-(5-methylisoxazol-3-yl)-1H-pyrazol-4-yl)methyl)piperidin-3-yl)methyl)-3-methylbutan-1-amine]"
6.00 to 6.30,> 7.00,"CCn1ccc(-c2nn(C)c(Cl)c2C(=O)N2CCCC3(CCN(CCC(C)(C)C)CC3)C2)n1 [Example 138, (5-Chloro-1′-ethyl-1-methyl-1H,1′H-[3,3′-bipyrazol]-4-yl)(9-(3,3-dimethylbutyl)-2,9-diazaspiro[5.5]undecan-2-yl)methanone]"
6.00 to 6.30,> 7.00,"CCc1nc(C)c(-c2nn(C)c(Cl)c2C(=O)N2CCCC3(CCN(CCC(C)(C)C)CC3)C2)o1 [Example 133, (5-Chloro-3-(2-ethyl-4-methyloxazol-5-yl)-1-methyl-1H-pyrazol-4-yl)(9-(3,3-dimethylbutyl)-2,9-diazaspiro[5.5]undecan-2-yl)methanone]"
6.00 to 6.30,6.00 to 6.30,"CCn1nc(-c2cc(C)on2)c(C(=O)NC2CCCCN(CCC(C)(C)C)C2)c1Cl (stereo not drawn) [Example 206, 5-Chloro-N-(1-(3,3-dimethylbutyl)azepan-3-yl)-1-ethyl-3-(5-methylisoxazol-3-yl)-1H-pyrazole-4-carboxamide]"
6.00 to 6.30,> 7.00,"CCn1nc(-c2cc(C)on2)c(CC(=O)N2CCC3(CCN(CCC(C)(C)C)CC3)CC2)c1Cl [Example 210, 2-(5-Chloro-1-ethyl-3-(5-methylisoxazol-3-yl)-1H-pyrazol-4-yl)-1-(9-(3,3-dimethylbutyl)-3,9-diazaspiro[5.5]undecan-3-yl)ethan-1-one]"
6.30 to 7.00,> 7.00,"Cn1nc(-c2cccc(C(F)(F)F)n2)c(C(=O)N2CCCC3(CCN(CCC(C)(C)C)CC3)C2)c1Cl [Example 155, (5-Chloro-1-methyl-3-(6-(trifluoromethyl)pyridin-2-yl)-1H-pyrazol-4-yl)(9-(3,3-dimethylbutyl)-2,9-diazaspiro[5.5]undecan-2-yl)methanone]"
